Reference: patent publication US11413278B2, “Compounds and methods for promoting stress resistance” (priority 2015, dated 2022)
Where two headings read alike, the source gives them in different places.

What was measured:
human PARP1 = target: T1, human PARP1 (Homo sapiens, UniProt P09874); test: PARP inhibitor assay (HT Fluorescent Homogeneous PARP Inhibition Assay Kit); format: biochemical; conditions: for L = PARP inhibition: score; for Inhibition of PARP1: 10 μM, in vitro
T1 construct: purchased Trevigen
In short: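 Compounds (10 μM final) incubated 30 min, room temperature, dark, with human PARP1, nicotinamide adenine dinucleotide and activated DNA. Fluorescent signal generated by 1 hr cycling with diaphorase and resazurin, then reaction stopped.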

FOXO3 = test: qPCR analysis of FOXO3-regulated genes; format: cell-based, human; conditions: for fold induction at 10 µM: Homo sapiens; for K = Sestrin induction: score; for Potential FOXO3 Activation (>=2 target genes induced, by >=1.5-fold): Assay 11(n)
In short: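 FOXO3 target-gene expression quantified by qPCR normalised to B2M, PPIA and GAPDH, in WI-38 cells after 24 h exposure to 10 μM compound. Some runs used cells first transfected 36 h with 10 nM FOXO3 or NRF2 siRNA and replated ~24 h before dosing.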

C. elegans = format: in vivo, Caenorhabditis elegans; conditions: in vivo
Description: The worms were treated with the small molecules in liquid, with H2O2 (500 μM final concentration) added on day 4 of adulthood, and scored for viability everyday
FUdR was used to block progeny production. The molecules were analyzed in 96-well plates, with 4 wells for each small molecule. Multiple control wells with DMSO (0.2% final concentration) were included. […] Day 1 adults were transferred onto mini-plates, seeded with OP50 bacteria (UV-irradiated, kanamycin-treated) and supplemented with small molecules (˜60 μM final concentration, 0.2% DMSO). Worms were scored every other day. Cumulative survival was analyzed using the STATA software (log-rank test). […] The worms were treated with the small molecules in liquid, with H2O2 (500 μM final concentration) added on day 4 of adulthood, and scored for viability every day.

[1] = 10 μM, 24 hrs, WI-38 cells, qPCR, normalized to B2M, n = 4, read-out: TXNIP expression, normalized fold change (FOXO3-regulated gene)
[2] = WI-38 cells, 10 μM, 24 hrs, n=4, qPCR normalized by B2M, read-out: DDB1 Normalized fold change
[3] = WI-38 cells, 10 μM, 24 hrs, n=4, qPCR normalized by B2M, read-out: GADD45A Normalized fold change
[4] = WI-38 cells, 10 μM, 24 hrs, n=4, qPCR normalized by B2M, read-out: SESN1 Normalized fold change
[5] = fold change, qPCR, WI-38 cells, 10 μM, 24 hrs, read-out: Summary of effects on FOXO3-regulated genes: TXNIP
[6] = qPCR, WI-38 cells, 10 μM, n=4, 24 hrs, normalized by B2M, read-out: CAT Normalized fold change
[7] = qPCR, WI-38 cells, 10 μM, n=4, 24 hrs, normalized by B2M, read-out: SOD2 Normalized fold change
[8] = qPCR, WI-38 cells, 10 μM, n=4, 24 hrs, normalized by B2M, read-out: TXNIP Normalized fold change
[9] = 24 h, Assay 10(m), at 10 uM, qPCR, read-out: Induction of FOXO3-regulated genes: GADD45A normalized fold-change
[10] = 10 μM, 24 hrs, WI-38 cells, qPCR, normalized to B2M, n = 4, read-out: GADD45A expression, normalized fold change (FOXO3-regulated gene)
[11] = fold change, qPCR, WI-38 cells, 10 μM, 24 hrs, read-out: Summary of effects on FOXO3-regulated genes: GADD45A
[12] = 24 h, Assay 10(m), at 10 uM, qPCR, read-out: Induction of FOXO3-regulated genes: DDB1 normalized fold-change
[13] = 10 μM, 24 hrs, WI-38 cells, qPCR, normalized to B2M, n = 4, read-out: DDB1 expression, normalized fold change (FOXO3-regulated gene)
[14] = fold change, qPCR, WI-38 cells, 10 μM, 24 hrs, read-out: Summary of effects on FOXO3-regulated genes: DDB1
[15] = 24 h, Assay 10(m), at 10 uM, qPCR, read-out: Induction of FOXO3-regulated genes: TXNIP normalized fold-change
[16] = 10 μM, 24 hrs, WI-38 cells, qPCR, normalized to B2M, n = 4
[17] = 24 h, Assay 10(m), at 10 uM, qPCR, read-out: Induction of FOXO3-regulated genes: SOD2 normalized fold-change
[18] = fold change, qPCR, WI-38 cells, 10 μM, 24 hrs

T1 sequence (P09874 whole entry): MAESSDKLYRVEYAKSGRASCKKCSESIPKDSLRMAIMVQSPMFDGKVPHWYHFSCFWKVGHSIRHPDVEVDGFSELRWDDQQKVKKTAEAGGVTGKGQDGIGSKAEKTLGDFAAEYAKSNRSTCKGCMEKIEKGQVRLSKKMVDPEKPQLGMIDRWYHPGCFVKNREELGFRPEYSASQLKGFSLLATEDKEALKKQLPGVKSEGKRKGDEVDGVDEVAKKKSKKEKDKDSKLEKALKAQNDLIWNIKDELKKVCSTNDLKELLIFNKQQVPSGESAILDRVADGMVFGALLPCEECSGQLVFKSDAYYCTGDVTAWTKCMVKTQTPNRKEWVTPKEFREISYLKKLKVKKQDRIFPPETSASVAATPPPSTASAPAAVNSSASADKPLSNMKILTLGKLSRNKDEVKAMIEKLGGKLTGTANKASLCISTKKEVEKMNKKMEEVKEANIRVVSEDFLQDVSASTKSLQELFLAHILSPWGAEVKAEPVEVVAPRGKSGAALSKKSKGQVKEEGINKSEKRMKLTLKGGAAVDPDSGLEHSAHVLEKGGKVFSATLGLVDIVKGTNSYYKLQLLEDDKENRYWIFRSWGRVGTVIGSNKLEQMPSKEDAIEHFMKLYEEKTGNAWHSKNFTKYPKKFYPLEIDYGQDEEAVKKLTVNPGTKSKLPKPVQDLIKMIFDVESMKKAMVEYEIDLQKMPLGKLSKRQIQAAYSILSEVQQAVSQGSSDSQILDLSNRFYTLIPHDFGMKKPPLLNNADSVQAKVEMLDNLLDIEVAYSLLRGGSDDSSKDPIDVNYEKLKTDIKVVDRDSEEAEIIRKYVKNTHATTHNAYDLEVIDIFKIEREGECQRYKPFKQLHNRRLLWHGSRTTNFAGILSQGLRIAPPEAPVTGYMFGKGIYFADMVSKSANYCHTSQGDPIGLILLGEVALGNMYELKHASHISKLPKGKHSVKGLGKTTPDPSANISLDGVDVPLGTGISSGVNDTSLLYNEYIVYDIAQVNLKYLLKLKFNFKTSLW

SMILES | L = PARP inhibition (human PARP1) | E = Potential FOXO3 Activation (FOXO3; 2-point score) | fold induction at 10 µM (FOXO3; [1]) | fold induction at 10 µM (FOXO3; [2]) | fold induction at 10 µM (FOXO3; [3]) | fold induction at 10 µM (FOXO3; [4]) | fold induction at 10 µM (FOXO3; [5]) | fold induction at 10 µM (FOXO3; [6]) | fold induction at 10 µM (FOXO3; [7]) | fold induction at 10 µM (FOXO3; [8]) | K = Sestrin induction (FOXO3) | E = Potential FOXO3 Activation (FOXO3; summary score) | L = H2O2-resistance in worms (C. elegans) | N = H2O2-resistance in woms (C. elegans) | fold induction at 10 µM (FOXO3; [9]) | fold induction at 10 µM (FOXO3; [10]) | fold induction at 10 µM (FOXO3; [11]) | H2O2-resistance assay, 1st experiment (C. elegans) | fold induction at 10 µM (FOXO3; [15]) | further results
CNC(=O)/C(C#N)=C/c1c(Oc2ccc(C(C)(C)C)cc2)nc2ccccn2c1=O [Gr-5D] | 0 | 0 | 0.67 | 0.984 | 0.698 | 1.1 | 0.67 | 1.27 | 1.12 | 0.669 | 0 | 0 | 0 | 0 | – | – | – | – | – | –
Cc1cc(N)n(-c2ccccc2C(=O)O)n1 [Gr-6A] | 1 | 0 | – | 1.05 | 0.787 | 1.18 | – | 1.2 | 0.868 | 1.14 | 0 | 0 | 0 | 0 | 0.79 | 0.79 | 0.79 | YES; | – | Inhibition of PARP1 (human PARP1): inhibitors of PARP1
O=C(/C=C/c1cn(-c2ccccc2)nc1-c1cccnc1)c1ccccc1 [Gr-6B] | 0 | 0 | – | 1.19 | 1.26 | 1.25 | – | 1.11 | 1.14 | 0.861 | 0 | 0 | 0 | 0 | – | – | – | – | – | fold induction at 10 µM (FOXO3; [12]): 1.19; fold induction at 10 µM (FOXO3; [13]): 1.19; fold induction at 10 µM (FOXO3; [14]): 1.19
N=C1S/C(=C\c2cn(-c3ccccc3)nc2-c2cccs2)C(=O)N1c1nccs1 [Gr-6C] | 0 | 0 | 0.57 | 1.22 | 2.17 | 1.42 | 0.57 | 1.13 | 1.01 | 0.568 | 0 | 0 | 0 | 0 | – | 2.17 | 2.17 | – | 0.57 | fold induction at 10 µM (FOXO3; 24 h, Assay 10(m), at 10 uM, qPCR, read-out: Induction of FOXO3-regulated genes: SESN1 normalized fold-change): 1.42; fold induction at 10 µM (FOXO3; 10 μM, 24 hrs, WI-38 cells, qPCR, normalized to B2M, n = 4, read-out: SESN1 expression, normalized fold change (FOXO3-regulated gene)): 1.42; fold induction at 10 µM (FOXO3; fold change, qPCR, WI-38 cells, 10 μM, 24 hrs, read-out: Summary of effects on FOXO3-regulated genes: SESN1): 1.42
O=C(NCc1cccnc1)/C(=C\c1cccc(Oc2ccccc2)c1)S(=O)(=O)c1ccccc1 [Gr-7A] | 0 | 2 | 0.12 | 0.979 | 1.91 | 1.14 | 0.12 | 1.15 | 1.78 | 0.12 | 0 | 2 | 1 | 1 | 1.91 | 1.91 | 1.91 | YES; | 0.12 | SOD2 expression, normalized fold change (FOXO3-regulated gene) (FOXO3; [16]): SOD2 1.78, fold; Potential FOXO3 Activation (>=2 target genes induced, by >=1.5-fold) (FOXO3): YES; fold induction at 10 µM (FOXO3; [17]): 1.78; Summary of effects on FOXO3-regulated genes: SOD2 (FOXO3; [18]): SOD2 1.78,; Protection of C. elegans from hydrogen peroxide (C. elegans): could protect C. elegans from hydrogen peroxide
O=C(NCc1cccnc1)/C(=C\c1ccc(Br)cc1)S(=O)(=O)c1ccccc1 [Gr-7B] | 0 | 0 | 0.26 | 1.31 | 2.07 | 0.952 | 0.26 | 1.13 | 1.33 | 0.262 | 0 | 0 | 0 | 0 | 2.07 | 2.07 | 2.07 | YES; | 0.26 | –
O=C(NCc1cccnc1)/C(=C/c1ccc(-c2ccc(Cl)cc2)o1)S(=O)(=O)c1ccccc1 [Gr-7C] | 0 | 2 | 0.07 | 1.36 | 10.9 | 1.28 | 0.07 | 1.43 | 2.68 | 0.068 | 0 | 2 | 0 | 0 | 10.9 | 10.9 | 10.9 | – | 0.07 | SOD2 expression, normalized fold change (FOXO3-regulated gene) (FOXO3; [16]): SOD2 2.67, fold; Potential FOXO3 Activation (>=2 target genes induced, by >=1.5-fold) (FOXO3): YES; fold induction at 10 µM (FOXO3; 24 h, Assay 10(m), at 10 uM, qPCR, read-out: Induction of FOXO3-regulated genes: CAT normalized fold-change): 1.43; fold induction at 10 µM (FOXO3; [12]): 1.36; fold induction at 10 µM (FOXO3; [17]): 2.67; fold induction at 10 µM (FOXO3; 10 μM, 24 hrs, WI-38 cells, qPCR, normalized to B2M, n = 4, read-out: CAT expression, normalized fold change (FOXO3-regulated gene)): 1.43; fold induction at 10 µM (FOXO3; [13]): 1.36; fold induction at 10 µM (FOXO3; fold change, qPCR, WI-38 cells, 10 μM, 24 hrs, read-out: Summary of effects on FOXO3-regulated genes: CAT): 1.43; fold induction at 10 µM (FOXO3; [14]): 1.36; Summary of effects on FOXO3-regulated genes: SOD2 (FOXO3; [18]): SOD2 2.67,
O=C1NCCCc2cc(Cl)sc21 [O1] | 1 | 0 | – | 1.2 | 0.853 | 1.18 | – | 1.25 | 1.11 | 1.11 | 0 | 0 | 0 | 0 | – | – | – | – | – | Inhibition of PARP1 (human PARP1): inhibitors of PARP1
CC1C(=O)C(C)C(c2cc(Cl)ccc2O)NC1c1cc(Cl)ccc1O (stereo not shown) [O6] | 0 | 0 | – | 0.988 | 0.881 | 1.06 | – | 0.919 | 0.932 | 1.01 | 0 | 0 | 0 | 0 | – | – | – | YES; | – | –
